According to ChEMBL document CHEMBL5338710, “Discovery of dearomatized isoprenylated acylphloroglucinols with colon tumor suppressive activities in mice via inhibiting NFκB-FAT1-PDCD4 signaling activation” (Eur J Med Chem, 2022):
Activity calls are given as the source filed them. No cut-off for these calls is given here.

Legend:
HCT-116 [1] = assay: Upregulation of SERPINE1 mRNA expression in human HCT-116 cells at 2.5 to 5 uM measured after 24 hrs by qRT-PCR analysis; type: functional, cell-based; details: dose 2.5-5 µM
HCT-116 [2] = assay: Antitumor activity against human HCT-116 cells xenografted in nude mouse model assessed as reduction in FAT1 expression in tumor tissue at 3 to 4 mg/kg, iv administered for 23 days by IHC analysis; type: functional, organism-based; details: dose 3-4 mg/kg, time 23.0 day
[3] = Toxicity in nude mouse xenografted with human HCT-116 cells assessed as change in plasma CK level at 3 to 4 mg/kg, iv measured for 23 days; type: organism-based; details: in vivo, 552 h, dose 3-4 mg/kg, time 23 day
HCT-116 [4] = assay: Antitumor activity against human HCT-116 cells xenografted in iv dosed nude mouse model assessed as increase in apoptosis in tumor tissue measured for 23 days by TUNEL staining based analysis; type: functional, organism-based; details: dose 3-4 mg/kg, time 23.0 day
HCT-116 [5] = assay: Antiproliferative activity against human HCT-116 cells assessed as reduction in cell viability at 5 uM measured after 48 hrs by MTT assay; type: functional, cell-based
[6] = Toxicity in nude mouse xenografted with human HCT-116 cells assessed as effect on body weight at 3 to 4 mg/kg, iv measured for 23 days; type: organism-based; details: in vivo, 552 h, dose 3-4 mg/kg, time 23 day
HCT-116 [7] = assay: Downregulation of PDCD4 mRNA expression in human HCT-116 cells by qRT-PCR analysis; type: functional, cell-based; details: dose 1-5 µM
HCT-116 [8] = assay: Antiproliferative activity against human HCT-116 cells assessed as reduction in cell viability measured after 48 hrs by BrdU staining based assay; type: functional; details: HCT-116, 48 h
HCT-116 [9] = assay: Antitumor activity against human HCT-116 cells xenografted in nude mouse assessed as reduction in tumor weight at 3 to 4 mg/kg, iv measured for 23 days; type: functional, organism-based; details: dose 3-4 mg/kg, time 23.0 day
HCT-116 [10] = assay: Downregulation of FAT1 mRNA expression in human HCT-116 cells at 2.5 to 5 uM measured after 24 hrs by qRT-PCR analysis; type: functional, cell-based; details: dose 2.5-5 µM
[11] = Toxicity in nude mouse xenografted with human HCT-116 cells assessed as change in plasma ALT level at 3 to 4 mg/kg, iv measured for 23 days; type: organism-based; details: in vivo, 552 h, dose 3-4 mg/kg, time 23 day
HCT-116 [12] = assay: Induction of cell cycle arrest in human HCT-116 cells assessed as upregulation of p53 protein expression at 2.5 to 5 uM measured for 48 hrs by Western blot analysis; type: functional, cell-based; details: dose 2.5-5 µM
SW480 = assay: Antiproliferative activity against human SW480 cells assessed as reduction in cell viability measured after 48 hrs by MTT assay; type: functional, cell-based; details: SW480, 48 h
HT-29 = assay: Antiproliferative activity against human HT-29 cells assessed as reduction in cell viability measured after 48 hrs by MTT assay; type: functional, cell-based; details: HT-29, 48 h
[13] = Toxicity in nude mouse xenografted with human HCT-116 cells assessed as change in plasma AST level at 3 to 4 mg/kg, iv measured for 23 days; type: organism-based; details: in vivo, 552 h, dose 3-4 mg/kg, time 23 day
HCT-116 [14] = assay: Induction of apoptosis in human HCT-116 cells assessed as decrease in Bcl2 mRNA expression at 5 uM measured for 48 hrs by qRT-PCR analysis; type: functional, cell-based
HCT-116 [15] = assay: Induction of G2/M phase cell cycle arrest in human HCT-116 cells assessed as decrease in CDK1 protein expression at 2.5 to 5 uM measured for 48 hrs by Western blot analysis; type: functional, cell-based; details: dose 2.5-5 µM
HCT-116 [16] = assay: Antitumor activity against human HCT-116 cells xenografted in nude mouse assessed as decrease in tumor volume at 3 to 4 mg/kg, iv measured for 23 days; type: functional, organism-based; details: dose 3-4 mg/kg, time 23.0 day
HCT-116 [17] = assay: Induction of apoptosis in human HCT-116 cells assessed as increase in Bax mRNA expression at 5 uM measured for 48 hrs by qRT-PCR analysis; type: functional, cell-based
HCT-116 [18] = assay: Antitumor activity against human HCT-116 cells xenografted in nude mouse model assessed as increase in p53 protein expression in tumor tissue at 3 to 3.5 mg/kg, iv administered for 23 days by Western blot analysis; type: functional, organism-based; details: dose 3-3.5 mg/kg, time 23.0 day
[19] = Antiproliferative activity against human HS27 cells assessed as reduction in cell viability measured after 48 hrs by MTT assay; type: toxicity, cell-based
HCT-116 [20] = assay: Induction of G2/M phase cell cycle arrest in human HCT-116 cells assessed as decrease in cyclin A2 mRNA expression at 2.5 to 5 uM measured after 24 hrs by qRT-PCR analysis; type: functional, cell-based; details: dose 2.5-5 µM
HCT-116 [21] = assay: Downregulation of FAT1 protein expression in human HCT-116 cells measured at 24 to 48 hrs by Western blot analysis; type: functional, cell-based; details: dose 0.5-5 µM, time 24-48 hrs
HCT-116 [22] = assay: Antiproliferative activity against human HCT-116 cells assessed as reduction in cell viability measured after 48 hrs by MTT assay; type: functional, cell-based; details: HCT-116, 48 h
HCT-116 [23] = assay: Induction of cell cycle arrest in human HCT-116 cells assessed as accumulation of cells at G2 phase at 2.5 to 5 uM measured after 48 hrs by PI staining based flow cytometry method; type: functional; details: dose 2.5-5 µM
HCT-116 [24] = assay: Antitumor activity against human HCT-116 cells xenografted in iv dosed nude mouse assessed as decrease in tumor volume measured for 23 days; type: functional, organism-based; details: dose 3-4 mg/kg, time 23.0 day
[25] = Antiproliferative activity against human PBMC cells assessed as reduction in cell viability measured after 48 hrs by MTT assay; type: toxicity, cell-based
HCT-116 [26] = assay: Antitumor activity against human HCT-116 cells xenografted in nude mouse assessed as decrease in tumor volume at 4 mg/kg, iv measured at day 9; type: functional, organism-based; details: time 9.0 day
[27] = target: T1, Nuclear factor NF-kappa-B complex (Homo sapiens) (UniProt Q00653+P19838+Q04206); assay: Inhibition of TNFalpha induced-NFkB phosphorylation in human HCT-116 cells at 5 uM pretreated for 24 hrs followed by TNFalpha induction and measured after 24 hrs by Western blot analysis; type: cell-based; details: time 48.0 hrs
HCT-116 [28] = assay: Induction of G2/M phase cell cycle arrest in human HCT-116 cells assessed as decrease in cyclin A2 protein expression at 2.5 to 5 uM measured for 48 hrs by Western blot analysis; type: functional, cell-based; details: dose 2.5-5 µM
[29] = Toxicity in nude mouse xenografted with human HCT-116 cells assessed as body weight loss at 3 to 4 mg/kg, iv measured for 23 days; type: organism-based; details: in vivo, 552 h, dose 3-4 mg/kg, time 23 day
HCT-116 [30] = assay: Induction of cell cycle arrest in human HCT-116 cells assessed as upregulation of 14-3-3sigma mRNA expression at 2.5 to 5 uM measured after 24 hrs by qRT-PCR analysis; type: functional, cell-based; details: dose 2.5-5 µM
[31] = Toxicity in nude mouse xenografted with human HCT-116 cells assessed as change in plasma LDH level at 3 to 4 mg/kg, iv measured for 23 days; type: organism-based; details: in vivo, 552 h, dose 3-4 mg/kg, time 23 day
[32] = target: T1, Nuclear factor NF-kappa-B complex (Homo sapiens); assay: Inhibition of TNFalpha induced-NFkB phosphorylation in human HCT-116 cells at 1 to 5 uM pretreated for 24 hrs followed by TNFalpha induction and measured after 24 hrs by Western blot analysis; type: cell-based; details: dose 1-5 µM, time 48.0 hrs
HCT-116 [33] = assay: Induction of apoptosis in human HCT-116 cells at 5 uM measured for 48 hrs by annexin V/PI staining based analysis; type: functional, cell-based
HCT-116 [34] = assay: Induction of cell cycle arrest in human HCT-116 cells assessed as upregulation of p21 mRNA expression at 2.5 to 5 uM measured after 24 hrs by qRT-PCR analysis; type: functional, cell-based; details: dose 2.5-5 µM
HCT-116 [35] = assay: Antitumor activity against human HCT-116 cells xenografted in nude mouse model assessed as reduction in Ki67 expression in tumor tissue at 3 to 4 mg/kg, iv administered for 23 days by […] analysis; type: functional, organism-based; details: dose 3-4 mg/kg, time 23.0 day
HCT-116 [36] = assay: Induction of cell cycle arrest in human HCT-116 cells assessed as upregulation of p53 mRNA expression at 2.5 to 5 uM measured after 24 hrs by qRT-PCR analysis; type: functional, cell-based; details: dose 2.5-5 µM

T1 sequence (P19838 whole entry, looked up): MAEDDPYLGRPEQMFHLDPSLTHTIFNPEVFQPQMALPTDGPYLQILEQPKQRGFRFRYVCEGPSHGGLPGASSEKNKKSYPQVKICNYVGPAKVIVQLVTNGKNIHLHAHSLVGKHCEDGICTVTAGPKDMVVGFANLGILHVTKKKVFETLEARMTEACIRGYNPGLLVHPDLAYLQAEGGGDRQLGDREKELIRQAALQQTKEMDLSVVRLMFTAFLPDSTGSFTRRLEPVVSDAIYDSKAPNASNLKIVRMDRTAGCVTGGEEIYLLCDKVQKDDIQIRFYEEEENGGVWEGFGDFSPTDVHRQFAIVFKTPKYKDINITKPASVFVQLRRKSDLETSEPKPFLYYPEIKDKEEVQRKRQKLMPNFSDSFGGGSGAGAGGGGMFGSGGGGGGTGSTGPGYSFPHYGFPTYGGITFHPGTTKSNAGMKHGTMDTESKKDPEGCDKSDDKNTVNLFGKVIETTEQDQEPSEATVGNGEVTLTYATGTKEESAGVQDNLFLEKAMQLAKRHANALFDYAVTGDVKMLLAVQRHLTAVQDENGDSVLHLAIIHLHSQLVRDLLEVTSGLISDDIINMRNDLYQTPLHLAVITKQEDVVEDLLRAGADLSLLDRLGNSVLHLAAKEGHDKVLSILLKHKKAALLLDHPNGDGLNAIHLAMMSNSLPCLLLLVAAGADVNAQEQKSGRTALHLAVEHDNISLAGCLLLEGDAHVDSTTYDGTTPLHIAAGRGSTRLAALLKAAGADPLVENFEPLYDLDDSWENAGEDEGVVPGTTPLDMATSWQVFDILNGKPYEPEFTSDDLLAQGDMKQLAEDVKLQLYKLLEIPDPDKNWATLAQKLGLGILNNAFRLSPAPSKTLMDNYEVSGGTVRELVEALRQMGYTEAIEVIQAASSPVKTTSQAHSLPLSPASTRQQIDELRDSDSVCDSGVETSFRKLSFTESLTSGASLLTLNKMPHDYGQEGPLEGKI
T1 sequence (Q00653 whole entry, looked up): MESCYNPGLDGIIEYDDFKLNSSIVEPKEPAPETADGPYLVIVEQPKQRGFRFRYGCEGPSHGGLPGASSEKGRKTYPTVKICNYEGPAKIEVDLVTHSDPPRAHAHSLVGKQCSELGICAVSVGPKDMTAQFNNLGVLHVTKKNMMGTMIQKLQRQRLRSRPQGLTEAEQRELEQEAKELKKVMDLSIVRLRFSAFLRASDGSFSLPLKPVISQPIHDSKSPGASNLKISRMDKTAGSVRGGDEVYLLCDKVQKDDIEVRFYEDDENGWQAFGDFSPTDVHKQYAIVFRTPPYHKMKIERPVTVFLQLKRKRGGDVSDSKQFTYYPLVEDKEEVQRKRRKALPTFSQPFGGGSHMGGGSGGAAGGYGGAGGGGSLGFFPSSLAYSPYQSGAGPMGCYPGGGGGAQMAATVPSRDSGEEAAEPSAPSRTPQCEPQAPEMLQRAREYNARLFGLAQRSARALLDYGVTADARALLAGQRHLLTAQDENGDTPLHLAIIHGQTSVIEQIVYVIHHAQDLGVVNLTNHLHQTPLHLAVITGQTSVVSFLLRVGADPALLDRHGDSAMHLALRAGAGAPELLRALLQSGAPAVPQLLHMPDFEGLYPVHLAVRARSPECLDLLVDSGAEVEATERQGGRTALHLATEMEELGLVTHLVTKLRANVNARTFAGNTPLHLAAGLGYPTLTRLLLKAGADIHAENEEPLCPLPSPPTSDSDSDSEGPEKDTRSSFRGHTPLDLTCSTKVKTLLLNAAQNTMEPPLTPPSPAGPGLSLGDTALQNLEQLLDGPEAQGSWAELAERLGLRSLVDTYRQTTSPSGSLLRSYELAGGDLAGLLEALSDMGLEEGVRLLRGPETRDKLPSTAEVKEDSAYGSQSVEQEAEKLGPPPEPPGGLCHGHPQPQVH
T1 sequence (Q04206 whole entry, looked up): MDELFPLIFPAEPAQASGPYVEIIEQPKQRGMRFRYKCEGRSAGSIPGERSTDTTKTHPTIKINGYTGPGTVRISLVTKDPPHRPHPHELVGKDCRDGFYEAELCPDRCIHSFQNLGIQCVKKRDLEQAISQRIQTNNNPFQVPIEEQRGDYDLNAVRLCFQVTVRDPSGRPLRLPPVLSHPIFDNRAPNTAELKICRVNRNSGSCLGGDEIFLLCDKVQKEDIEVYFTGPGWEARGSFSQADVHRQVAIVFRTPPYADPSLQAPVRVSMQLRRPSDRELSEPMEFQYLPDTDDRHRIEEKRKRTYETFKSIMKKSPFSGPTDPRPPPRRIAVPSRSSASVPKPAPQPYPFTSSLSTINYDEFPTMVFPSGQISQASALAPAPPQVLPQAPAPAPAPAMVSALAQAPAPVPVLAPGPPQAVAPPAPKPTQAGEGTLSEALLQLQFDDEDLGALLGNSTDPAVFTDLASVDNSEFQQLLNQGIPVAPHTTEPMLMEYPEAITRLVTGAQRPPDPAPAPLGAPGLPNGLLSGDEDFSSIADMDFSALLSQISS

## C=C(C)[C@H]1CC[C@@](C)(O)[C@@H](C2=C(O)[C@@](C)(CC=C(C)C)C(=O)C(C(=O)C(C)C)=C2O)C1
HCT-116 [1]
  Activity: Active
HCT-116 [2]
  Activity: Active
[3]
  Activity: Non-Toxic
HCT-116 [4]
  Activity: Dose-Dependent Effect
HCT-116 [5]
  Activity: Active
[6]
  Activity: Non-Toxic
HCT-116 [7]
  Activity: Dose-Dependent Effect
HCT-116 [8]
  IC50: 1.53 µM
HCT-116 [9]
  Activity: Active
HCT-116 [10]
  Activity: Active
[11]
  Activity: Non-Toxic
HCT-116 [12]
  Activity: Active
SW480
  IC50: 22.2 µM
HT-29
  IC50: 11.6 µM
[13]
  Activity: Non-Toxic
HCT-116 [14]
  Activity: Active
HCT-116 [15]
  Activity: Active
HCT-116 [16]
  Activity: Active
HCT-116 [17]
  Activity: Active
HCT-116 [18]
  Activity: Active
[19]
  IC50 at 48 h: > 100 µM
HCT-116 [20]
  Activity: Active
HCT-116 [21]
  Activity: Dose-Dependent Effect
HCT-116 [22]
  IC50: 4.37 µM
HCT-116 [23]
  Activity: Active
HCT-116 [24]
  Activity: Dose-Dependent Effect
[25]
  IC50 at 48 h: > 100 µM
HCT-116 [26]
  Activity: Active
[27]
  inhibition: Active
HCT-116 [28]
  Activity: Active
[29]
  Activity: Non-Toxic
HCT-116 [30]
  Activity: Active
[31]
  Activity: Non-Toxic
[32]
  inhibition: inactive
HCT-116 [33]
  Activity: Active
HCT-116 [34]
  Activity: Active
HCT-116 [35]
  Activity: Active
HCT-116 [36]
  Activity: Active
